Here are results for 17 compounds from ChEMBL document CHEMBL1909046, “DrugMatrix in vitro pharmacology data”.

Assay [1] has as its target Beta-1 adrenergic receptor (Homo sapiens, UniProt P08588). The assay is described as follows: DRUGMATRIX: Adrenergic beta1 radioligand binding (ligand: [125I] Cyanopindolol). Particulars: Not Active = under 50% inhibition at 10 µM; for IC50: cho-k1. In kind it is cell membranes, CHO-K1, Membrane.
Assay [2] addresses Aldo-keto reductase family 1 member B1 (Rattus norvegicus, UniProt P07943). The assay is described as follows: biochemical. In kind it is tissue-based, Lens of camera-type eye.
The target of assay [3] is T1, Cholecystokinin receptor type A (Homo sapiens, UniProt P32238). Note: in other assays of this panel Not Active means under 50% inhibition at 10 µM.
T1 sequence (P32238 whole entry): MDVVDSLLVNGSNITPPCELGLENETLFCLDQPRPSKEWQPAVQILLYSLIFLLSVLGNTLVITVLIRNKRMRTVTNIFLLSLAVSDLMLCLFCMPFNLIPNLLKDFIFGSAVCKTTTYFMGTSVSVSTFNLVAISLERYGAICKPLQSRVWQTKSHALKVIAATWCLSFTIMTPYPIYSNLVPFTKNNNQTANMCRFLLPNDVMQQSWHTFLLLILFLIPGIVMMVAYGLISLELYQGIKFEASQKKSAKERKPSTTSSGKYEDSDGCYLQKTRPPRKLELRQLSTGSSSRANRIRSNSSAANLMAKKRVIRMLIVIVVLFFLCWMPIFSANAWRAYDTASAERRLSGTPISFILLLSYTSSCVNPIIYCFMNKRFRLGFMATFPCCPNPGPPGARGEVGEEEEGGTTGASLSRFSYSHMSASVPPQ
In kind it is cell membranes, Membrane. As to conditions: 1321-n1.

A short description of assay [4]: DRUGMATRIX: GABAA, Muscimol, Central radioligand binding (ligand: [3H] Muscimol). The format is cell membranes, Rattus norvegicus, Wistar, Brain, Membrane. As to conditions: Not Active = under 50% inhibition at 10 µM.
Assay [5] is described as follows: DRUGMATRIX: Glutamate, NMDA, Agonism radioligand binding (ligand: [3H] CGP-39653). The format is cell membranes, Rattus norvegicus, Wistar, Cerebral cortex, Membrane. As to conditions: Not Active = under 50% inhibition at 10 µM.
Assay [6] can be described thus: DRUGMATRIX: Interleukin IL-1 radioligand binding (ligand: [125I] interleukin 1beta). In kind it is cell membranes, Membrane. Particulars: nih3t3; Not Active = under 50% inhibition at 10 µM.
The target of assay [7] is Protein phosphatase 3 catalytic subunit alpha (Homo sapiens, UniProt Q08209). Further details: species or system Escherichia coli.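 Note: inhibition of calcineurin (PP2B) enzyme activity, measured with DiFMUP as the substrate; in other assays of this panel Not Active means under 50% inhibition at 10 µM.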
Another assay concerns the target Acetylcholinesterase (Homo sapiens, UniProt P22303). Description: DRUGMATRIX: Acetylcholinesterase enzyme inhibition (substrate: acetylthiocholine). In kind it is cell-based, HEK293. Particulars: hek293; Not Active = under 50% inhibition at 10 µM.

pIC50, pKi: −log10 of the molar value.

Sequence of Beta-1 adrenergic receptor (P08588 whole entry): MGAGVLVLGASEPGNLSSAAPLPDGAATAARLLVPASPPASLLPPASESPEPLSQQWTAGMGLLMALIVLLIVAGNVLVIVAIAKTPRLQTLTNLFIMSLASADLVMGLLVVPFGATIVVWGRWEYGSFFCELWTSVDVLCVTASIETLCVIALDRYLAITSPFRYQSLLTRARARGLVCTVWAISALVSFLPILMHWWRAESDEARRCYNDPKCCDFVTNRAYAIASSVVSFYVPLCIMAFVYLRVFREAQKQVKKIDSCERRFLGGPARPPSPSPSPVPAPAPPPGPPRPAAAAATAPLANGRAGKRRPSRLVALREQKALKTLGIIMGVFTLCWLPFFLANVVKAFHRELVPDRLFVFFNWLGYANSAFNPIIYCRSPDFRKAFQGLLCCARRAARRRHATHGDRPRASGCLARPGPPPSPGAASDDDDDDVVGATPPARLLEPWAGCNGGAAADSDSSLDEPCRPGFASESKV
Sequence of Acetylcholinesterase (P22303 whole entry): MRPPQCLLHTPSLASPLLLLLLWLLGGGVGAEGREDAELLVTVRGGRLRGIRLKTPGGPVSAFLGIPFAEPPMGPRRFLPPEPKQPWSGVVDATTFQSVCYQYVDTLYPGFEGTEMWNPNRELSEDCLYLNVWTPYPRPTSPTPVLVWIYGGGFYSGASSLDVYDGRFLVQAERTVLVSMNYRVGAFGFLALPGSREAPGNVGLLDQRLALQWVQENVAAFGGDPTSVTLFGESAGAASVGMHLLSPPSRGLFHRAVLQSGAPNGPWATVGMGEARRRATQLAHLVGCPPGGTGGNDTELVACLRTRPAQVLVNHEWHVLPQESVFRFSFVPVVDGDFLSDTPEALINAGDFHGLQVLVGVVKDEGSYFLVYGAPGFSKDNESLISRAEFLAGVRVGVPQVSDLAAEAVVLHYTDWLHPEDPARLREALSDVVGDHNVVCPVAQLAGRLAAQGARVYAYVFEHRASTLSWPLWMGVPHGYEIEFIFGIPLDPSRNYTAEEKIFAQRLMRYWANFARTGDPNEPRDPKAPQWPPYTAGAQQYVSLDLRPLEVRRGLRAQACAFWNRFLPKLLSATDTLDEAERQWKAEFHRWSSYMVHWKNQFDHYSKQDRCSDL

As for `CC(=O)Oc1ccccc1C(=O)O` [ASPIRIN], the IC50 result in assay [1], in assay [2], in assay [3], in assay [4], in assay [5] and in assay [6] was “Not Active” in each case. The IC50 entry (in assay [7]; against Acetylcholinesterase) was “Not Active” each time. Also, the Ki result in assay [4], in assay [5] and in assay [6] was “Not Active” each time.
On to `CC(C)c1c(C(=O)Nc2ccccc2)c(-c2ccccc2)c(-c2ccc(F)cc2)n1CC[C@@H](O)C[C@@H](O)CC(=O)O` [ATORVASTATIN], for which the IC50 result in assay [1], in assay [2], in assay [3], in assay [4], in assay [5] and in assay [6] was “Not Active” each time. The IC50 entry (in assay [7]; on Acetylcholinesterase) was “Not Active” in each case. In addition, the Ki entry in assay [4], in assay [5] and in assay [6] was “Not Active” in each case.
In the case of `CC(=O)OC[C@H]1O[C@@H](n2ncc(=O)[nH]c2=O)[C@H](OC(C)=O)[C@@H]1OC(C)=O` [AZARIBINE], the IC50 entry in assay [1], in assay [2], in assay [3], in assay [4], in assay [5] and in assay [6] was “Not Active” throughout. The IC50 result (in assay [7]; at Acetylcholinesterase) was “Not Active” in each case. Also, the Ki entry in assay [4], in assay [5] and in assay [6] was “Not Active” in each case.
As for `C[C@H]1[C@H](NC(=O)/C(=N\OC(C)(C)C(=O)O)c2csc(N)n2)C(=O)N1S(=O)(=O)O` [AZTREONAM], the IC50 entry in assay [1], in assay [2], in assay [3], in assay [4], in assay [5] and in assay [6] was “Not Active” in each case. Besides, the IC50 result (in assay [7]; against Acetylcholinesterase) was “Not Active” throughout. The Ki entry in assay [4], in assay [5] and in assay [6] was “Not Active” each time.
For `O=C(O)CCNC(=O)c1ccc(/N=N/c2ccc(O)c(C(=O)O)c2)cc1` [BALSALAZIDE], the IC50 result in assay [1], in assay [2], in assay [3], in assay [4], in assay [5] and in assay [6] was “Not Active” each time. In addition, the IC50 result (in assay [7]; at Acetylcholinesterase) was “Not Active” throughout. The Ki result in assay [4], in assay [5] and in assay [6] was “Not Active” each time.
Take `COc1cc(OC)c(C(=O)CCCN2CCCC2)c(OC)c1` [BUFLOMEDIL]: the IC50 result in assay [1], in assay [2], in assay [3], in assay [4], in assay [5] and in assay [6] was “Not Active” each time. Besides, the IC50 entry (in assay [7]; against Acetylcholinesterase) was “Not Active” in each case. The Ki entry in assay [4], in assay [5] and in assay [6] was “Not Active” each time.
Turning to `Cn1c(=O)c2c(ncn2C)n(C)c1=O` [CAFFEINE], the IC50 entry in assay [1], in assay [2], in assay [3], in assay [4], in assay [5] and in assay [6] was “Not Active” each time. The IC50 entry (in assay [7]; at Acetylcholinesterase) was “Not Active” each time. For the same compound, the Ki entry in assay [4], in assay [5] and in assay [6] was “Not Active” throughout.
Take `ClC(Cl)(Cl)Cl` [CARBON TETRACHLORIDE]: the IC50 entry in assay [1], in assay [2], in assay [3], in assay [4], in assay [5] and in assay [6] was “Not Active” throughout. The IC50 entry (in assay [7]; at Acetylcholinesterase) was “Not Active” throughout. Also, the Ki entry in assay [4], in assay [5] and in assay [6] was “Not Active” throughout.
For `CO/N=C(\C(=O)N[C@@H]1C(=O)N2C(C(=O)O)=C(COC(C)=O)CS[C@H]12)c1csc(N)n1` [CEFOTAXIME], the IC50 entry in assay [1], in assay [2], in assay [3], in assay [4], in assay [5] and in assay [6] was “Not Active” each time. Besides, the IC50 entry (in assay [7]; on Acetylcholinesterase) was “Not Active” throughout. For the same compound, the Ki result in assay [4], in assay [5] and in assay [6] was “Not Active” each time.
In the case of `CNC1=Nc2ccc(Cl)cc2C(c2ccccc2)=[N+]([O-])C1` [CHLORDIAZEPOXIDE], the IC50 entry in assay [1], in assay [2], in assay [3], in assay [4], in assay [5] and in assay [6] was “Not Active” each time. The IC50 entry (in assay [7]; on Acetylcholinesterase) was “Not Active” throughout. The Ki result in assay [4], in assay [5] and in assay [6] was “Not Active” in each case.
As to `Cc1cc(O)cc(C)c1Cl` [CHLOROXYLENOL], the IC50 entry in assay [1], in assay [2], in assay [3], in assay [4], in assay [5] and in assay [6] was “Not Active” each time. Also, the IC50 entry (in assay [7]; on Acetylcholinesterase) was “Not Active” each time. The Ki result in assay [4], in assay [5] and in assay [6] was “Not Active” each time.
As for `CCCNC(=O)NS(=O)(=O)c1ccc(Cl)cc1` [CHLORPROPAMIDE], the IC50 result in assay [1], in assay [2], in assay [3], in assay [4], in assay [5] and in assay [6] was “Not Active” in each case. For the same compound, the IC50 result (in assay [7]; on Acetylcholinesterase) was “Not Active” in each case. Further, the Ki entry in assay [4], in assay [5] and in assay [6] was “Not Active” in each case.
Consider `NS(=O)(=O)c1cc(C2(O)NC(=O)c3ccccc32)ccc1Cl` (stereo not drawn) [CHLORTHALIDONE], for which the IC50 result in assay [1], in assay [2], in assay [3], in assay [4], in assay [5] and in assay [6] was “Not Active” each time. Besides, the IC50 result (in assay [7]; against Acetylcholinesterase) was “Not Active” in each case. Also, the Ki entry in assay [4], in assay [5] and in assay [6] was “Not Active” in each case.
In general, pIC50 refers to −log10 of the IC50, conventionally taken in molar units. Usually pKi stands for −log10 of the Ki, conventionally taken in molar units. With `CC(C)NCC(O)c1ccccc1Cl` (stereo not drawn) [CLORPRENALINE], the pIC50 in assay [1] (read-out: IC50) is 5.59. Further, the negative logarithm of the Ki (pKi) in assay [1] (read-out: Ki) is 5.82. The IC50 result in assay [2], in assay [3], in assay [4], in assay [5], in assay [6] and in assay [7] was “Not Active” throughout. For the same compound, at Acetylcholinesterase, the IC50 result is “Not Active”. The Ki result in assay [4], in assay [5] and in assay [6] was “Not Active” each time.
Regarding `CN1CCN(C(c2ccccc2)c2ccccc2)CC1` [CYCLIZINE], the IC50 entry in assay [1], in assay [2], in assay [3], in assay [4], in assay [5] and in assay [6] was “Not Active” throughout. The IC50 entry (in assay [7]; against Acetylcholinesterase) was “Not Active” in each case. The Ki result in assay [4], in assay [5] and in assay [6] was “Not Active” each time.
As for `CN1C[C@@H]2C[C@H]1CN2c1cc2c(cc1F)c(=O)c(C(=O)O)cn2C1CC1` [DANOFLOXACIN], the IC50 entry in assay [1], in assay [2], in assay [3], in assay [4], in assay [5] and in assay [6] was “Not Active” each time. Moreover, the IC50 entry (in assay [7]; against Acetylcholinesterase) was “Not Active” in each case. Further, the Ki result in assay [4], in assay [5] and in assay [6] was “Not Active” in each case.
On to `COc1cccc2c1C(=O)c1c(O)c3c(c(O)c1C2=O)C[C@@](O)(C(C)=O)C[C@@H]3O[C@H]1C[C@H](N)[C@H](O)[C@H](C)O1` [DAUNORUBICIN], for which the IC50 entry in assay [1], in assay [2], in assay [3], in assay [4], in assay [5] and in assay [6] was “Not Active” each time. In addition, the IC50 result (in assay [7]; at Acetylcholinesterase) was “Not Active” each time. In addition, the Ki result in assay [4], in assay [5] and in assay [6] was “Not Active” throughout.
